Counter-ions that a name gives are not always drawn. Like-named read-outs stand apart in the source and are kept apart here.
Assays:
Assay in all cases: AK assay 384-well format, Prestwick library screening
E. cloacae = format: cell-based, Enterobacter cloacae; conditions: 50 μM final drug concentration; for fold induction at 50 µM: Enterobacter cloacae, 3 h
P. aeruginosa = format: cell-based, Pseudomonas aeruginosa; conditions: 50 μM final drug concentration; for fold induction at 50 µM: Pseudomonas aeruginosa, 3 h
[1] = tested on: S. aureus strain USA300-0114; format: cell-based, Staphylococcus aureus; conditions: 50 μM final drug concentration; for fold induction at 50 µM: Staphylococcus aureus, USA300, 3 h
[2] = tested on: A. baumannii strain 98-37-09; format: cell-based, Acinetobacter baumannii; conditions: 50 μM final drug concentration; for fold induction at 50 µM: Acinetobacter baumannii, 983709, 3 h
K. pneumoniae = format: cell-based, Klebsiella pneumoniae; conditions: 50 μM final drug concentration; for fold induction at 50 µM: Klebsiella pneumoniae, 3 h
E. coli = format: cell-based, Escherichia coli; conditions: 50 μM final drug concentration; for fold induction at 50 µM: Escherichia coli, 3 h
E. faecium = format: cell-based, Enterococcus faecium; conditions: 50 μM final drug concentration; for fold induction at 50 µM: Enterococcus faecium, 3 h
[3] = planktonic, cutoff for positive-scoring molecules 3-fold increase, read-out: AK-based Prestwick Library Screening Results, E. cloacae (fold increase in extracellular AK activity)
[4] = planktonic, cutoff for positive-scoring molecules 3-fold increase, read-out: AK-based Prestwick Library Screening Results, P. aeruginosa (fold increase in extracellular AK activity)
[5] = planktonic, cutoff for positive-scoring molecules 3-fold increase, read-out: AK-based Prestwick Library Screening Results, S. aureus (fold increase in extracellular AK activity)
[6] = planktonic, cutoff for positive-scoring molecules 3-fold increase, read-out: AK-based Prestwick Library Screening Results, A. baumannii (fold increase in extracellular AK activity)
[7] = planktonic, cutoff for positive-scoring molecules 3-fold increase, read-out: AK-based Prestwick Library Screening Results, K. pneumoniae (fold increase in extracellular AK activity)
[8] = planktonic, cutoff for positive-scoring molecules 3-fold increase, read-out: AK-based Prestwick Library Screening Results, E. coli (fold increase in extracellular AK activity)
[9] = planktonic, cutoff for positive-scoring molecules 3-fold increase, read-out: AK-based Prestwick Library Screening Results, E. faecium (fold increase in extracellular AK activity)
[10] = 384-well format, cutoff for positive-scoring molecules 3-fold increase, read-out: AK-based Prestwick Library Screening Results, E. cloacae (increase in extracellular AK activity)
[11] = 384-well format, cutoff for positive-scoring molecules 3-fold increase, read-out: AK-based Prestwick Library Screening Results, P. aeruginosa (increase in extracellular AK activity)
[12] = 384-well format, cutoff for positive-scoring molecules 3-fold increase, read-out: AK-based Prestwick Library Screening Results, S. aureus (increase in extracellular AK activity)
[13] = 384-well format, cutoff for positive-scoring molecules 3-fold increase, read-out: AK-based Prestwick Library Screening Results, A. baumannii (increase in extracellular AK activity)
[14] = 384-well format, cutoff for positive-scoring molecules 3-fold increase, read-out: AK-based Prestwick Library Screening Results, K. pneumoniae (increase in extracellular AK activity)
[15] = 384-well format, cutoff for positive-scoring molecules 3-fold increase, read-out: AK-based Prestwick Library Screening Results, E. coli (increase in extracellular AK activity)
[16] = 384-well format, cutoff for positive-scoring molecules 3-fold increase, read-out: AK-based Prestwick Library Screening Results, E. faecium (increase in extracellular AK activity)

Work on `CN1CCN(C(c2ccccc2)c2ccc(Cl)cc2)CC1` (stereo not drawn) [Chlorcyclizine hydrochloride] yielded a fold induction at 50 µM (E. cloacae; cutoff for positive-scoring molecules 3-fold increase, read-out: AK-based Prestwick Library Screening Results, E. cloacae (fold increase in extracellular AK activity)) of 1.6, a fold induction at 50 µM (P. aeruginosa; cutoff for positive-scoring molecules 3-fold increase, read-out: AK-based Prestwick Library Screening Results, P. aeruginosa (fold increase in extracellular AK activity)) of 1.1 and a fold induction at 50 µM ([1]; cutoff for positive-scoring molecules 3-fold increase, read-out: AK-based Prestwick Library Screening Results, S. aureus (fold increase in extracellular AK activity)) of 1.2. It also gave a fold induction at 50 µM ([2]; cutoff for positive-scoring molecules 3-fold increase, read-out: AK-based Prestwick Library Screening Results, A. baumannii (fold increase in extracellular AK activity)) of 1.5, a fold induction at 50 µM (K. pneumoniae; cutoff for positive-scoring molecules 3-fold increase, read-out: AK-based Prestwick Library Screening Results, K. pneumoniae (fold increase in extracellular AK activity)) of 1.1 and a fold induction at 50 µM (E. coli; cutoff for positive-scoring molecules 3-fold increase, read-out: AK-based Prestwick Library Screening Results, E. coli (fold increase in extracellular AK activity)) of 1.3. For the same compound, the fold induction at 50 µM (E. faecium; cutoff for positive-scoring molecules 3-fold increase, read-out: AK-based Prestwick Library Screening Results, E. faecium (fold increase in extracellular AK activity)) was 1.

For `CN1C(=O)CCS(=O)(=O)C1c1ccc(Cl)cc1` (stereo not drawn) [Chlormezanone], the fold induction at 50 µM (E. cloacae; planktonic E. cloacae, […], read-out: AK-based Prestwick Library Screening Results, E. cloacae (increase in extracellular AK activity)) was 0.7, the fold induction at 50 µM (P. aeruginosa; planktonic P. aeruginosa, […], read-out: AK-based Prestwick Library Screening Results, P. aeruginosa (increase in extracellular AK activity)) was 0.6 and the fold induction at 50 µM ([1]; planktonic S. aureus, […], read-out: AK-based Prestwick Library Screening Results, S. aureus (increase in extracellular AK activity)) was 0.7. The fold induction at 50 µM ([2]; planktonic A. baumannii, […], read-out: AK-based Prestwick Library Screening Results, A. baumannii (increase in extracellular AK activity)) was 0.7, the fold induction at 50 µM (K. pneumoniae; planktonic K. pneumoniae, […], read-out: AK-based Prestwick Library Screening Results, K. pneumoniae (increase in extracellular AK activity)) was 0.6 and the fold induction at 50 µM (E. coli; planktonic E. coli, […], read-out: AK-based Prestwick Library Screening Results, E. coli (increase in extracellular AK activity)) was 0.7. The fold induction at 50 µM (E. faecium; planktonic E. faecium, […], read-out: AK-based Prestwick Library Screening Results, E. faecium (increase in extracellular AK activity)) was 1.

With `O=C(/C=C/c1ccc(O)c(O)c1)O[C@@H]1C[C@](O)(C(=O)O)C[C@@H](O)[C@H]1O` [Chlorogenic acid] the fold induction at 50 µM (E. cloacae; planktonic E. cloacae, cutoff for positive-scoring molecules 3-fold increase, read-out: AK-based Prestwick Library Screening Results, E. cloacae (increase in extracellular AK activity)) was 0.8, the fold induction at 50 µM (P. aeruginosa; planktonic P. aeruginosa, cutoff for positive-scoring molecules 3-fold increase, read-out: AK-based Prestwick Library Screening Results, P. aeruginosa (increase in extracellular AK activity)) was 0.7 and the fold induction at 50 µM ([1]; planktonic S. aureus, cutoff for positive-scoring molecules 3-fold increase, read-out: AK-based Prestwick Library Screening Results, S. aureus (increase in extracellular AK activity)) was 0.5. The fold induction at 50 µM ([2]; planktonic A. baumannii, cutoff for positive-scoring molecules 3-fold increase, read-out: AK-based Prestwick Library Screening Results, A. baumannii (increase in extracellular AK activity)) was 0.8, the fold induction at 50 µM (K. pneumoniae; planktonic K. pneumoniae, cutoff for positive-scoring molecules 3-fold increase, read-out: AK-based Prestwick Library Screening Results, K. pneumoniae (increase in extracellular AK activity)) was 0.7 and the fold induction at 50 µM (E. coli; planktonic E. coli, cutoff for positive-scoring molecules 3-fold increase, read-out: AK-based Prestwick Library Screening Results, E. coli (increase in extracellular AK activity)) was 0.8. It also gave a fold induction at 50 µM (E. faecium; planktonic E. faecium, cutoff for positive-scoring molecules 3-fold increase, read-out: AK-based Prestwick Library Screening Results, E. faecium (increase in extracellular AK activity)) of 0.9.

Compound `CN(C)CCN(Cc1ccc(Cl)cc1)c1ccccn1` [Chloropyramine hydrochloride] has a fold induction at 50 µM (E. cloacae; [3]) of 0.6, a fold induction at 50 µM (P. aeruginosa; [4]) of 0.5 and a fold induction at 50 µM [1, 5] of 0.5. It also gave a fold induction at 50 µM [2, 6] of 0.6, a fold induction at 50 µM (K. pneumoniae; [7]) of 0.6 and a fold induction at 50 µM (E. coli; [8]) of 0.7. It also gave a fold induction at 50 µM (E. faecium; [9]) of 0.9.

Compound `NS(=O)(=O)c1cc2c(cc1Cl)N=CNS2(=O)=O` [Chlorothiazide] has a fold induction at 50 µM (E. cloacae; [10]) of 0.9, a fold induction at 50 µM (P. aeruginosa; [11]) of 0.9 and a fold induction at 50 µM [1, 12] of 0.8. For the same compound, the fold induction at 50 µM [2, 13] was 0.9, the fold induction at 50 µM (K. pneumoniae; [14]) was 0.7 and the fold induction at 50 µM (E. coli; [15]) was 0.9. For the same compound, the fold induction at 50 µM (E. faecium; [16]) was 1.

In the case of `COc1ccc(C(Cl)=C(c2ccc(OC)cc2)c2ccc(OC)cc2)cc1` [Chlorotrianisene], the fold induction at 50 µM (E. cloacae; [3]) is reported as 1.4, the fold induction at 50 µM (P. aeruginosa; [4]) is reported as 0.8 and the fold induction at 50 µM [1, 5] is reported as 0.8. The fold induction at 50 µM [2, 6] was 0.8, the fold induction at 50 µM (K. pneumoniae; [7]) was 0.8 and the fold induction at 50 µM (E. coli; [8]) was 0.9. For the same compound, the fold induction at 50 µM (E. faecium; [9]) was 1.

With `CN(C)CCC(c1ccc(Cl)cc1)c1ccccn1` (stereo not drawn) [Chlorpheniramine maleate] the fold induction at 50 µM (E. cloacae; [10]) was 1.1, the fold induction at 50 µM (P. aeruginosa; [11]) was 0.8 and the fold induction at 50 µM [1, 12] was 0.8. The fold induction at 50 µM [2, 13] was 0.9, the fold induction at 50 µM (K. pneumoniae; [14]) was 0.7 and the fold induction at 50 µM (E. coli; [15]) was 1. The fold induction at 50 µM (E. faecium; [16]) was 0.9.

For `NC(=O)OCC(O)COc1ccc(Cl)cc1` (stereo not drawn) [Chlorphensin carbamate], the “AK-based Prestwick Library Screening Results: E. cloacae (increase in extracellular AK activity)” value (E. cloacae; planktonic E. cloacae, 384-well, cutoff for positive-scoring molecules 3-fold increase) was 1.4, the “AK-based Prestwick Library Screening Results: P. aeruginosa (increase in extracellular AK activity)” value (P. aeruginosa; planktonic P. aeruginosa, 384-well, cutoff for positive-scoring molecules 3-fold increase) was 1.1 and the “AK-based Prestwick Library Screening Results: S. aureus (increase in extracellular AK activity)” value ([1]; planktonic S. aureus, 384-well, cutoff for positive-scoring molecules 3-fold increase) was 1.0. The “AK-based Prestwick Library Screening Results: A. baumannii (increase in extracellular AK activity)” value ([2]; planktonic A. baumannii, 384-well, cutoff for positive-scoring molecules 3-fold increase) was 1.3, the “AK-based Prestwick Library Screening Results: K. pneumoniae (increase in extracellular AK activity)” value (K. pneumoniae; planktonic K. pneumoniae, 384-well, cutoff for positive-scoring molecules 3-fold increase) was 1.1 and the “AK-based Prestwick Library Screening Results: E. coli (increase in extracellular AK activity)” value (E. coli; planktonic E. coli, 384-well, cutoff for positive-scoring molecules 3-fold increase) was 1.2. For the same compound, the “AK-based Prestwick Library Screening Results: E. faecium (increase in extracellular AK activity)” value (E. faecium; planktonic E. faecium, 384-well, cutoff for positive-scoring molecules 3-fold increase) was 0.9.

`CN(C)CCCN1c2ccccc2Sc2ccc(Cl)cc21` [Chlorpromazine hydrochloride] gave a fold induction at 50 µM (E. cloacae; planktonic E. cloacae, 384-well, cutoff for positive-scoring molecules 3-fold increase, read-out: AK-based Prestwick Library Screening Results: E. cloacae (increase in extracellular AK activity)) of 1.4, a fold induction at 50 µM (P. aeruginosa; planktonic P. aeruginosa, 384-well, cutoff for positive-scoring molecules 3-fold increase, read-out: AK-based Prestwick Library Screening Results: P. aeruginosa (increase in extracellular AK activity)) of 1.1 and a fold induction at 50 µM ([1]; planktonic S. aureus, 384-well, cutoff for positive-scoring molecules 3-fold increase, read-out: AK-based Prestwick Library Screening Results: S. aureus (increase in extracellular AK activity)) of 1.4. The fold induction at 50 µM ([2]; planktonic A. baumannii, 384-well, cutoff for positive-scoring molecules 3-fold increase, read-out: AK-based Prestwick Library Screening Results: A. baumannii (increase in extracellular AK activity)) was 1.5, the fold induction at 50 µM (K. pneumoniae; planktonic K. pneumoniae, 384-well, cutoff for positive-scoring molecules 3-fold increase, read-out: AK-based Prestwick Library Screening Results: K. pneumoniae (increase in extracellular AK activity)) was 1.1 and the fold induction at 50 µM (E. coli; planktonic E. coli, 384-well, cutoff for positive-scoring molecules 3-fold increase, read-out: AK-based Prestwick Library Screening Results: E. coli (increase in extracellular AK activity)) was 1.4. It also gave a fold induction at 50 µM (E. faecium; planktonic E. faecium, 384-well, cutoff for positive-scoring molecules 3-fold increase, read-out: AK-based Prestwick Library Screening Results: E. faecium (increase in extracellular AK activity)) of 1.
